Legend:
HIF-1α = type: cell-based
[1] = tested on: M14 (MDA-MB-435) melanoma cells; assay: Cell viability of sparse and dense M14 (MDA-MB-435) melanoma cells under normoxia or hypoxia (FIG. 5b); type: cell-based; conditions: normoxia (20%) or hypoxia (0.1%), viability at 48 h by cellular ATP
Experimental: In hypoxic cells, stabilized HIF-1α shunts away energy carbon flow from mitochondria (illustrated graphically in FIG. 4.). The regulatory subunit of HIF-1α is stabilized under hypoxic conditions, and thus-stabilized HIF-1α forms active HIF-1 (HIF-1α/1b heterodimer), whereupon HIF-1 induces LDH-A to convert pyruvate to lactate. The potency of the bis[thiohydrazide amide] compound elesclomol on sparse and dense melanoma cells was assayed under hypoxic and normoxic conditions. Total HIF-1α (cytosolic+nuclear, FIG. 5a) and cell viability of M14 (MDA-MB-435) melanoma cells (FIG. 5b) was evaluated at 12 h and 48 h by ELISA (R&D systems) and cellular ATP levels (CellTiter Glo-Promega), respectively, under normoxia (20%) or hypoxia (0.1%) with sparse (2 k cells/well) or dense (20 k cells/well) in 96-well plates.

Caki-2 cells = assay: Cell viability by CellTiter Glo ATP assay at 24 h, Caki-2 cells (FIG. 6b); type: cell-based; conditions: HIF-1α-high Caki-2 cells, 2,500 cells/well
Experimental: (§1) To further investigate a correlation between HIF-1α and elesclomol potency, lines within the same cancer phenotype but showing distinct levels of HIF1α were evaluated. Caki-1 and -2 are renal cancer cell lines established from the same patient; Caki-2 cells constitutively express HIF-1α while the expression in Caki-1 cells is conditional. VHL protein is a negative regulator of HIF-1α, and a VHL mutation accompanies constitutive HIF-1α expression. In FIG. 6a, cells were serially diluted to the densities indicated. Cell lysates were harvested for ELISA at 24 h after seeding. In FIG. 6b, cells were seeded at 2,500 cells/well-96 plate. Cell viability was evaluated by CellTiter Glo ATP assay at 24 h.

CoCl2-treated M14 cells = assay: Cell viability of CoCl2-treated M14 cells with elesclomol and oxamate (FIG. 10, 11); type: cell-based; conditions: 50 nM elesclomol, 50 μM CoCl2, 25 mM oxamate, 48 h
Experimental: By inhibiting LDH, the conversion of pyruvate to lactate is shut down, as illustrated in the left panel of FIG. 10. Oxamate, a pyruvate analog and LDH-A inhibitor, was tested on CoCl2-treated M14 cells as illustrated in the right panel of FIG. 10. Cell viability was assessed after 48 h incubation with or without elesclomol and oxamate.
Cell viability was assessed after 48 h incubation with or without 50 nM elesclomol in the presence or absence of 50 μM CoCl2 and 25 mM oxamate.

metastatic melanoma = assay: Phase 3 trial in metastatic melanoma, stratified by baseline LDH; type: in vivo, patients; conditions: for median PFS: elesclomol arm
Source text: In a Phase 3 trial in metastatic melanoma, the level of baseline lactate dehydrogenase (LDH) in patients emerged as an important prognostic factor for treatment outcomes with elesclomol. A differential response to treatment with elesclomol was shown, based on the level of baseline LDH in the plasma, an established prognostic biomarker in melanoma and a pre-specified stratification variable in the trial.

769-P = assay: Cell viability (CellTiter Glo ATP) with elesclomol under normoxia/hypoxia, 769-P; type: cell-based; conditions: 769-P cell line, which did not elevate LDH-A activity under hypoxic conditions
Experimental: FIG. 7 illustrates experimental work done with a variety of cells showing how high levels of HIF-1α and LDH-A activity correlate with the reduced sensitivity to elesclomol. FIGS. 7a and 7b show the reductive (i.e., pyruvate to lactate) LDH activity and HIF-1α level under normoxic and hypoxic conditions. The cells set forth in the Figures and in Table 1, below were seeded at 2 k cells/well in a 96-well plate and cultured under normoxic (20% O2) and hypoxic (0.1% O2) conditions to determine their LDH activity and HIF-1α level. LDH-A activity (measuring reduction of pyruvate to lactate by monitoring NADH at 340 nm) and HIF-1α were analyzed at 24 h. […] An experiment was then run to treat these same cell lines with vehicle or 50 nM elesclomol under normoxic (20% O2) and hypoxia (0.1% O2) conditions for 36 h (FIG. 7d.) Cell viability was evaluated by cellular ATP (CellTiter Glo, Promega).

M14 melanoma cells = assay: Cell viability (CCK8 assay) in M14 melanoma cells; type: cell-based; conditions: Homo sapiens, confluent M14 cells, 48 h incubation
Experimental: M14 melanoma cells were seeded at 50,000 cells per well of 96-well plate in 100 μl of Dulbecco's […] (DMEM) supplemented with 10% fetal bovine serum. Cells were cultured at 37° C. under 5% CO2-95% air. After 16 hours of incubation, the test compound was added to the cell culture. The compound was first diluted in 100% dimethyl sulfoxide (DMSO) at 400-fold of the final concentrations actually used in the assay. The DMSO solution was next diluted 20 fold with the culture medium, and then finally added to the assay wells at another 20-fold dilution. Assay medium included the test compound with concentrations as indicated with 0.25% DMSO. Cell viability was measured with a CCK8 assay (as described in the Technical Manual for Cell Counting Kit-8, Product #CK04-11, CK04-13 and CK04-20, Dojindo Molecular Technologies, Inc. MD; Tantular, I. S. et al. Tropical Medicine and International Health, 8(6), 569-574, 2003) in the last 15 minutes after a 48 h incubation with the test compound. Each bar of the figure expresses average percent inhibition against vehicle (0.25% DMSO) control (n=4). Error bars indicate standard deviation.

Caki-1 cells = assay: Cell viability by CellTiter Glo ATP assay at 24 h, Caki-1 cells (FIG. 6b); type: cell-based; conditions: HIF-1α-low Caki-1 cells, 2,500 cells/well
Experimental: as §1

## [Cl-].[Cl-].[Co+2] [CoCl2]
HIF-1α
  HIF-1α level: increases
  reductive LDH activity: increased

## CN(NC(=O)CC(=O)NN(C)C(=S)c1ccccc1)C(=S)c1ccccc1 [elesclomol, N-malonyl-bis(N′-methyl-N′-thiobenzoylhydrazide)]
[1]
  potency of elesclomol, normoxia vs hypoxia: increased potency
Caki-2 cells
  sensitivity of cells to elesclomol: resistant
CoCl2-treated M14 cells
  elesclomol activity upon co-treatment with oxamate (cell viability): remains active
Metastatic melanoma; elevated LDH population
  survival endpoint: negative impact
Metastatic melanoma; elevated LDH population, 32% of patients
  median PFS: 1.8 months
Metastatic melanoma; elevated LDH population, p=0.549
  PFS HR: 1.10
Metastatic melanoma; normal LDH population
  overall survival: no impact on overall survival
  safety profile: acceptable safety profile
Metastatic melanoma; normal LDH population, 68% of patients
  median PFS: 3.6 months
Metastatic melanoma; normal LDH population, p=0.027
  PFS HR: 0.76
769-P
  change in sensitivity to elesclomol under hypoxic conditions: no change
M14 melanoma cells
  IC50: > 12.5 µM
Caki-1 cells
  sensitivity of cells to elesclomol: sensitive

— US8815945B2, “Use of bis [thiohydrazide amide] compounds such as elesclomol for treating cancers” (priority 2010, dated 2014)
